Laboratory results published in ChEMBL document CHEMBL1201862, “PubChem BioAssay data set” (2004).
Calls of active or inactive are those of the source.

Legend:
[1] = Luminescence Cell-Based Dose Retest to Confirm Inhibitors of Cancer Stem Cells. [Related pubchem assays (depositor defined):AID2717, AID2721]; format: functional; conditions: Homo sapiens
[2] = biological target: T1, Rac GTPase-activating protein 1 (Homo sapiens, UniProt Q9H0H5); assay: blockers of MgcRacGAP-driven Rac1 GTP hydrolysis – biochemical, ADP Hunter fluorescence, primary and confirmatory, confirmation (AID 624330); format: functional
T1 sequence (Q9H0H5 whole entry): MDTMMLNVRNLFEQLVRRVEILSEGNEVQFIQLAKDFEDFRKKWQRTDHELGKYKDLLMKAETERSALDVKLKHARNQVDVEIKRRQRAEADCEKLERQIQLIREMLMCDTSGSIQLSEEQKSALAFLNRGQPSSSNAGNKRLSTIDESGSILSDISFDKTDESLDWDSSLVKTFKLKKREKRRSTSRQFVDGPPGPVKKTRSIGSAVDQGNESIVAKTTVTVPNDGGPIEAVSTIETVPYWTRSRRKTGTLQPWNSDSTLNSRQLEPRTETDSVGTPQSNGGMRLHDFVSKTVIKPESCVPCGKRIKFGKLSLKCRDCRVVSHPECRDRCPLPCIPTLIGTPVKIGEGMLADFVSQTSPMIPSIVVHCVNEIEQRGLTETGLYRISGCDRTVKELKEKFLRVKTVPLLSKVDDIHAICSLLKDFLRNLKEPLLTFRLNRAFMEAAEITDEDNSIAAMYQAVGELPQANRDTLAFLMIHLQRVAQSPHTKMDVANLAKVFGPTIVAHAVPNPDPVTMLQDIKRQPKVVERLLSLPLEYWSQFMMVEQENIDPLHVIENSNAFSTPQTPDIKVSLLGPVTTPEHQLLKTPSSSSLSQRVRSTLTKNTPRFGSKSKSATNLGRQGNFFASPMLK

[3] = NIH3T3 cell viability loss – ATP luminescence, mouse fibroblasts, counter-screen, dose response (AID 2010); format: functional, cell-based;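 note: cells exposed to compound for about 90 hours before reading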
[4] = Trypanosoma cruzi growth suppression in host cells – NIH3T3 host cells, beta-gal luminescence, confirmation (AID 2044); format: functional, cell-based;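 note: intracellular parasites grown in NIH/3T3 mouse fibroblasts as host cells; luminescent beta-galactosidase reporter signal from transgenic T. cruzi replicating inside host cells; inhibitors lower the luminescence signal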
Cytochrome P450 3A4 = Cytochrome P450 3A4 (Homo sapiens, UniProt P08684);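 note: CYP3A4 tested as one member of a cytochrome P450 panel screen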
Chain of Cytochrome P450 3A4 (P08684 whole entry): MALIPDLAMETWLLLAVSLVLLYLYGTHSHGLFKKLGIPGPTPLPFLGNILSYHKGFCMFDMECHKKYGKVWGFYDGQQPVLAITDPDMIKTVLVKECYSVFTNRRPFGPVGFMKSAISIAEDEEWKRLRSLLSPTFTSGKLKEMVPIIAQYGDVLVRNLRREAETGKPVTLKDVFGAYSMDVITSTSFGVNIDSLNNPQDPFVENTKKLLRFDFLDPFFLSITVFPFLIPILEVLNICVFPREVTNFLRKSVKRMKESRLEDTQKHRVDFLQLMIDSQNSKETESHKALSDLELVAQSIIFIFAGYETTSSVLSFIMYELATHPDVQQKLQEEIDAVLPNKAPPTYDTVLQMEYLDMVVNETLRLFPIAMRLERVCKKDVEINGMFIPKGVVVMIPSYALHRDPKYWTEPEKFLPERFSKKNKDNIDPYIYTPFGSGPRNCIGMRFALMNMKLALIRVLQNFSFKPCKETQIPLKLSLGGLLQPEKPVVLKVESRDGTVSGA

Streptococcus = assay: GAS UMAA2166 growth inhibition – luminescence, BacTiterGlo, counter-screen for streptokinase expression inhibitor project, dose response (AID 1915); format: functional, organism-based;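 note: potency for reduction of bacterial viability or growth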
[5] = tested on: Streptococcus sp. 'group A'; assay: Streptococcus pyogenes SK(-)GAS viability under kanamycin – luminescence, BacTiterGlo, confirmation, counter-screen for streptokinase expression inhibitor project, dose response (AID 1900); format: functional, organism-based
Cytochrome P450 1A2 = biological target: T2, Cytochrome P450 1A2 (Homo sapiens, UniProt P05177);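 note: PubChem cytochrome P450 panel assay, CYP1A2 panel member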
T2 sequence (P05177 whole entry): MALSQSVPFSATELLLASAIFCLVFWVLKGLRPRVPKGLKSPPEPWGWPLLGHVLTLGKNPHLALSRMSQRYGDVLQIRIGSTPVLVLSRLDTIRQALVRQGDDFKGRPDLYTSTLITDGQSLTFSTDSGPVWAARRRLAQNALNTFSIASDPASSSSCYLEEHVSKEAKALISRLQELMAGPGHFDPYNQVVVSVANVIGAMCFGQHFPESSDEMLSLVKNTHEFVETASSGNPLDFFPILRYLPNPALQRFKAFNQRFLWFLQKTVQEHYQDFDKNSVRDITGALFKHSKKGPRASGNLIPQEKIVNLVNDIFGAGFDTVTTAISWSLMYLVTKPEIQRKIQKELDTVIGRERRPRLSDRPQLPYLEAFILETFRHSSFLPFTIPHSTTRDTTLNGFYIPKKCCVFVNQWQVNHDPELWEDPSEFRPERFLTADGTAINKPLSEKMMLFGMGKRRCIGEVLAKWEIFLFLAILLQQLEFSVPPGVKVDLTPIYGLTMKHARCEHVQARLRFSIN

CCc1ccc(-c2cc3c(=O)n(CC(=O)NCCN4CCCCC4C)nc(C)n3n2)cc1 (stereo not given)
AC50 [1]: 2.45 µM (active)

COc1ccc(CN(C)CC(=O)Nc2ccc(Cl)cc2C(F)(F)F)c(OC)c1
IC50 [2]: 84.4 µM (active)

Clc1ccc(COc2cccc(CNCc3ccncc3)c2)cc1
EC50 [3]: > 60 µM (not active)
EC50 [4]: 3.42 µM (active)

CCc1ccccc1NC(=O)CN(c1ccc(OC)cc1OC)S(=O)(=O)c1ccccc1[N+](=O)[O-]
EC50 [3]: > 60 µM (not active)
EC50 [4]: 2.25 µM (active)

COc1cccc(Oc2nc(-c3ccncc3)nc3ccccc23)c1
EC50 [3]: 7.86 µM (active)
EC50 [4]: 2.41 µM (active)

COc1cc(/C=N/N=C2\CC3CCC2(C)C3(C)C)ccc1O (stereo not given)
IC50 [2]: 54.4 µM (active)

COc1ccc(-c2c[n+](CC(=O)N3c4ccccc4Sc4ccccc43)c3n2CCC3)cc1
EC50 [3]: > 60 µM (not active)
EC50 [4]: 0.648 µM (active)

COc1ccc2[nH]c3c(c2c1)CCN=C3C
AC50 (Cytochrome P450 3A4): 5.01 µM (inconclusive)

CCn1c(NC(=O)c2cccc(Cn3cc(Cl)cn3)c2)nc2ccccc21
EC50 (Streptococcus): 18.6 µM (active)
EC50 [5]: 3.97 µM (active)

O=[N+]([O-])c1ccc(Nc2nc(NC3CCCCC3)nc(N3CCCC3)n2)cc1
EC50 [3]: > 60 µM (not active)
EC50 [4]: 1.75 µM (active)

CN1CCN(c2ccnc(-c3ccc(N(C)C)cc3)n2)CC1
AC50 (Cytochrome P450 3A4): 15.8 µM (inconclusive)

CCO/C(O)=C(/C#N)c1nc2ccccc2nc1N(CC(C)C)CC(C)C
AC50 [1]: 6.07 µM (active)

CC(C)NCC(O)COC1C2CC3CC(C2)CC1C3 (stereo not given)
EC50 [3]: > 60 µM (not active)
EC50 [4]: 1.14 µM (active)

CCS(=O)(=O)N1CCC(C(=O)NCCCOC)CC1
AC50 (Cytochrome P450 3A4): 0.0562 µM (inconclusive)

Cn1cc(-c2nc3cnc(N4CCNCC4)nc3n(C)c2=O)c2ccccc21
AC50 (Cytochrome P450 1A2): 15.8 µM (inconclusive)

COc1cc(C(=O)N/N=C/c2cn(Cc3ccccc3)c3ccccc23)ccc1O
IC50 [2]: 90.1 µM (active)

CN1CCN(c2ncc3nc(CCc4ccccc4)c(=O)n(C4CC4)c3n2)CC1
AC50 (Cytochrome P450 3A4): 15.8 µM (inconclusive)
AC50 (Cytochrome P450 1A2): 12.6 µM (inconclusive)

Cn1c(=O)c2c(nc(Cl)n2Cc2ccc(Cl)c(Cl)c2)n(C)c1=O
AC50 (Cytochrome P450 3A4): 15.8 µM (inconclusive)

COc1ccc(/C=N/N(Cc2ccccc2)c2ccccc2)cc1O
AC50 [1]: 6.09 µM (active)

Nc1nc2c(C(=O)NCc3cccs3)nnn2c2cccc(Cl)c12
AC50 (Cytochrome P450 1A2): 1 µM (inconclusive)

CC1=C(C(=O)Nc2cccnc2)C(c2cccnc2)n2nc(-c3cccs3)nc2N1 (stereo not given)
AC50 (Cytochrome P450 1A2): 5.01 µM (inconclusive)

C#CCCCO/N=C1/C[C@@H](O)[C@@H](O)[C@@H]2[C@@H]3C(=O)N(CCC(=O)OCC)C(=O)[C@H]3CC[C@@H]12
AC50 (Cytochrome P450 3A4): 3.16 µM (inconclusive)

CN(C)C=O.O=[N+]([O-])c1cccc(COc2ncnc3cc([N+](=O)[O-])ccc23)c1
EC50 [3]: > 60 µM (not active)
EC50 [4]: 1.93 µM (active)

COC(=O)c1ccc(-c2noc(CN(Cc3ccncc3)CC3CCCO3)n2)cc1 (stereo not given)
EC50 [3]: > 60 µM (inconclusive)
EC50 [4]: 2.46 µM (active)

O=C(Nc1ccccc1)N1CCCC2(CCNCC2)C1
AC50 (Cytochrome P450 3A4): 20 µM (inconclusive)
AC50 (Cytochrome P450 1A2): 25.1 µM (inconclusive)

CCC(C)c1ccccc1NC(=O)COC(=O)c1ccc2[nH]c3c(c2c1)CCCC3 (stereo not given)
AC50 [1]: 2.09 µM (active)

Cc1nc2ccc(Br)cn2c1C(=O)N/N=C\c1ccc(C(C)C)cc1
AC50 [1]: 2.75 µM (active)

O=c1ccn(-c2ccccc2)[nH]1
IC50 [2]: 46.9 µM (active)

O=C(O)[C@@H]1CCN(Cc2oc(CO)cc(=O)c2O)C1
AC50 (Cytochrome P450 1A2): 10 µM (inconclusive)

COc1cc2nc(=S)n(CCCN3CCOCC3)c(N)c2cc1OC
IC50 [2]: 202 µM (active)

Cc1nn(CC(=O)NC2C(=O)N3C(C(=O)O)=C(CSc4nnnn4C)CSC23)cc1Br (stereo not given)
EC50 (Streptococcus): 0.316 µM (active)
EC50 [5]: 0.072 µM (active)

Cc1ccc(C)c(-n2c(Cc3cc(O)nc(O)n3)nnc2SCC(=O)NCC2CCCO2)c1 (stereo not given)
AC50 (Cytochrome P450 3A4): 31.6 µM (inconclusive)

Cc1cccc(NC(=S)N(CCc2nc3cc(C)c(C)cc3[nH]2)Cc2cccnc2)c1
EC50 [3]: > 60 µM (not active)
EC50 [4]: 0.853 µM (active)

Oc1ccc(Nc2ncnc3c2oc2ccccc23)cc1
IC50 [2]: 15 µM (active)

COc1ccc(NC(=O)N2CCCC3(CCN(C(=O)c4cnccn4)CC3)C2)cc1
AC50 (Cytochrome P450 3A4): 15.8 µM (inconclusive)

CC1=C(/C=C\C(=O)O)C(C)(C)CCC1
AC50 (Cytochrome P450 1A2): 6.31 µM (inconclusive)

CCOc1cc(-c2cc(-c3ccc(NC(C)=O)cc3)nc(N)c2C#N)ccc1O
EC50 (Streptococcus): 6.34 µM (active)
EC50 [5]: 0.651 µM (active)

COC(=O)c1ccc(N2CCN(c3ccccc3)CC2)c(NC(=O)C2CC2)c1
AC50 (Cytochrome P450 3A4): 25.1 µM (inconclusive)
AC50 (Cytochrome P450 1A2): 39.8 µM (inconclusive)

COc1ccc(-c2nc3cnc(OC)nc3n(CCC#N)c2=O)cc1
AC50 (Cytochrome P450 1A2): 6.31 µM (inconclusive)

N#CC1=C(N)NC(SCc2ccc(Br)cc2)=C(C#N)C12CCCCC2
EC50 [3]: > 60 µM (not active)
EC50 [4]: 3.29 µM (active)

CCCCNC(=O)CCc1c(C)nc2c(c(C)nn2-c2ccccc2)c1C
EC50 [3]: > 30 µM (not active)
EC50 [4]: 1.39 µM (active)

COc1ccc(C(c2nnnn2Cc2ccccc2)N2CCN(c3nc4ccccc4s3)CC2)cc1 (stereo not given)
EC50 [3]: 8.63 µM (active)
EC50 [4]: 3 µM (active)

Cc1ccc(Cl)cc1N1CCN(C(=O)c2ccc(CN3CCOCC3)cc2)CC1
EC50 [3]: 4.63 µM (active)
EC50 [4]: 2.13 µM (active)

CN(CCc1ccccn1)Cc1ccc(Cl)c(Cl)c1
EC50 [3]: > 60 µM (not active)
EC50 [4]: 0.244 µM (active)

COc1ccc(-n2nc([N+](=O)[O-])c(NCCc3cccc(C)c3)[n+]2[O-])cc1
EC50 [3]: > 60 µM (inconclusive)
EC50 [4]: 0.48 µM (active)

Cc1c(C(=O)Nc2ccc3c(c2)OCCO3)sc2nc(-c3ccccc3)cn12
EC50 (Streptococcus): 7.44 µM (active)
EC50 [5]: 3.01 µM (active)

COc1cc(/C=N/Nc2nc(C)cc(C)n2)ccc1O
IC50 [2]: 47.1 µM (active)

Cc1c(C)n(CCCN(C)C)c2ncnc(Nc3ccc(F)cc3)c12
EC50 [3]: > 30 µM (not active)
EC50 [4]: 0.9 µM (active)

CCCN1C[C@H](CSC)C[C@H]2c3cccc4[nH]cc(c34)C[C@@H]21
AC50 (Cytochrome P450 1A2): 3.16 µM (inconclusive)

COCCNC(=O)c1onc(CSc2ccc(Cl)cc2)c1C(=O)O
AC50 (Cytochrome P450 3A4): 15.8 µM (inconclusive)

Oc1ccc2ccc(Cl)cc2c1
IC50 [2]: 41.9 µM (active)

COc1cccc(-c2sc3ccc(OC)cc3c2C#CCC(C)O)c1 (stereo not given)
AC50 [1]: 3.66 µM (active)
